Results from US4505929A, “Sulfur-substituted diphenyl ethers having antiviral activity” (The Dow Chemical Company, priority 1982, dated 1985).
≈ marks a conversion by molar mass, not a printed value.

Tests used:
[1] = Cytotoxicity to HeLa cells in tissue culture testing; type: cell-based; settings: human, G.I. = growth inhibition: at the concentration shown the compound inhibited growth of the tissue culture, read-out: Cytotoxicity (G.I.)
Protocol: (§1) Monolayered HeLa cells in 16 millimeter (mm) tissue culture dishes were treated with 1 ml of culture medium (Eagles medium supplemented with fetal calf serum) containing subject compound at an appropriate concentration or containing no compound at all. Culture media such as those described herein are more fully described in standard texts, as for example, Kuchler's Biochemical Methods in Cell Culture and Virology, Dowden, Hutchinson and Ross, Inc., Stroudsberg, PA (1977). Following treatment, cells were challenged with 0.05 ml of rhinovirus type 1A (RV-1A), rhinovirus type 2 (RV-2) or Coxsackie A21 virus (Cox A21) in culture medium. Some of the compounds were also tested against rhinovirus type 5 (RV-5), rhinovirus type 8 (RV-8) or rhinovirus type 64 (RV-64). Cell controls received no viruses.
^x Cytotoxicity figures represent the concentration of the compound,
micrograms/milliliter (μg/ml) found to be toxic to the cell.
means "approximately "; "<<" "considerably less than " and "G.I." means

[2] = test system: rhinovirus type 1A (RV-1A); assay: Tissue culture antiviral test (HeLa cells), RV-1A; type: cell-based; settings: Enterovirus, 48 and 72 hours post-treatment, read-out: Lowest concentration necessary to cause a 50 percent reduction in cytopathic effect, RV-1A
Protocol: as §1
(§2) ^xx Lowest concentration of the compound (μg/ml) necessary to caus
(§3) a 50 percent reduction in cytopathic effect.

[3] = test system: rhinovirus type 2 (RV-2); assay: Tissue culture antiviral test (HeLa cells), RV-2; type: cell-based; settings: Enterovirus, 48 and 72 hours post-treatment, read-out: Lowest concentration necessary to cause a 50 percent reduction in cytopathic effect, RV-2
Protocol: as §1, §2, §3

[4] = test system: Coxsackie A21 virus (Cox A21); assay: Tissue culture antiviral test (HeLa cells), Cox A21; type: cell-based; settings: 48 and 72 hours post-treatment, read-out: Lowest concentration necessary to cause a 50 percent reduction in cytopathic effect, Cox A21
Protocol: as §1, §2, §3

[5] = test system: rhinovirus type 8 (RV-8); assay: Tissue culture antiviral test (HeLa cells), RV-8; type: cell-based; settings: Enterovirus, 48 and 72 hours post-treatment, read-out: Lowest concentration necessary to cause a 50 percent reduction in cytopathic effect, RV-8
Protocol: as §1, §2, §3

[6] = test system: rhinovirus type 64 (RV-64); assay: Tissue culture antiviral test (HeLa cells), RV-64; type: cell-based; settings: Enterovirus, 48 and 72 hours post-treatment, read-out: Lowest concentration necessary to cause a 50 percent reduction in cytopathic effect, RV-64
Protocol: as §1, §2, §3

[7] = test system: Cox A21; assay: Single Oral Dose test in Cox A21 infected mice; type: in vivo, Swiss male mice
Protocol: In addition, some of the compounds were tested in animals utilizing the following procedure, hereinafter referred to as the "Single Oral Dose" test. Swiss male mice, 10-12 grams in weight were challenged intraperitoneally (IP) with 0.2 ml of a normally lethal dose, i.e. a virus dose sufficient to cause .congruent.80-100% mortality in infected animals within 10 days of challenge of Cox A21, in phosphate buffered saline containing 1% heat inactivated fetal calf serum. Three hours later mice were treated orally (P.O.) with 0.2 ml of compound suspended in 0.5% hydroxypropyl methylcellulose (Methocel) or with 0.2 ml of 0.5% Methocel containing no compound. […] Mice were observed daily for 7-10 days post-challenge and deaths recorded. A modified Mantel-Haenzel combined chi-square procedure was used to determine significant difference between virus control and treated groups. Chi-square values greater than 3.84 are considered significant (95% confidence level) in this test.

[8] = test system: Coxsackie A21 virus; assay: Continuous Oral Feeding test in Coxsackie A21 infected mice; type: in vivo; settings: in diet
Protocol: Some of the compounds were also tested in animals utilizing the following procedure, hereinafter referred to as the "Continuous Oral Feeding" test. Coxsackie A21 virus grown on HeLa cells was administered at a concentration that produces 80 to 100% deaths in mice weighing 10 to 11 grams within 10 days, when the mice are injected (IP) with 0.2 ml of virus preparation. Mice were placed on diets containing test compound dispersed in plain commercially available rodent mash chow at a concentration of 0.05% (weight percent) on day 0. On day 1 the mice were challenged with the virus preparation, 0.2 ml/mouse, (IP). Deaths in both control and experimental groups were recorded for the 10 days and the results analyzed by a chi-square (X^2) test. Chi-square values greater than 3.84 indicate the compound is active (95% confidence level).
^xxx Percent (by weight) of test compound in the diet fed to test

[9] = test system: Hank's (untyped) rhinovirus; assay: Inhibition of cytopathic effect in Wl-38 cells, Hank's (untyped); type: cell-based; settings: Enterovirus, WI-38, 25 μg/ml, Wl-38 human embryonic lung cells, read-out: inhibition grade
Protocol: (§4) Solutions of 4-(4-(methylsulfonyl)phenoxy)-1,2-dichlorobenzene were prepared by dissolving 5 milligrams of the compound in 0.1 ml dimethyl sulfoxide and incubating at 56° C. for at least 15 minutes. This solution was added to 0.9 ml of warmed (56° C.) maintenance medium (49% Eagles, 49% medium 199, 2% fetal calf serum and antibiotics), and the resulting 1.0 ml was then added to 9 ml of warmed (56° C.) maintenance medium. From this solution the final concentrations of 100, 50, 25, or 12.5 μg/ml were made up with maintenance medium.
(§5) Triplicate cell culture tubes (Wl-38 human embryonic lung cell culture tubes) were fed with 1 ml of medium containing the compound at specified concentrations and inoculated with 3-300 TCID50 (3-300 times the tissue culture infective dose 50, i.e., the dose required to infect 50% of the cell cultures tested. Simultaneous viral titrations were performed. The tissue cultures were supplemented with fresh medium when necessary (around 3-4 days) until viral titrations were completed.
(§6) The cell culture tubes were examined daily for cytopathic effect. […] Comparisons were made at that time with the percentage of cell sheet destruction in tubes containing virus compound mixtures. Observed differences of 75% or more were graded "+", 74-50% as "±", and less than 50% as "-" inhibition.

[10] = test system: rhinovirus type 4; assay: Inhibition of cytopathic effect in Wl-38 cells, type 4; type: cell-based; settings: Enterovirus, WI-38, 25 μg/ml, Wl-38 human embryonic lung cells, read-out: inhibition grade
Protocol: as §4, §5, §6

[11] = test system: rhinovirus type 6; assay: Inhibition of cytopathic effect in Wl-38 cells, type 6; type: cell-based; settings: Enterovirus, WI-38, 25 μg/ml, Wl-38 human embryonic lung cells, read-out: inhibition grade
Protocol: as §4, §5, §6

[12] = test system: rhinovirus type 10; assay: Inhibition of cytopathic effect in Wl-38 cells, type 10; type: cell-based; settings: Enterovirus, WI-38, 25 μg/ml, Wl-38 human embryonic lung cells, read-out: inhibition grade
Protocol: as §4, §5, §6

[13] = test system: rhinovirus type 13; assay: Inhibition of cytopathic effect in Wl-38 cells, type 13; type: cell-based; settings: Enterovirus, WI-38, 25 μg/ml, Wl-38 human embryonic lung cells, read-out: inhibition grade
Protocol: as §4, §5, §6

[14] = test system: rhinovirus type 17; assay: Inhibition of cytopathic effect in Wl-38 cells, type 17; type: cell-based; settings: Enterovirus, WI-38, 25 μg/ml, Wl-38 human embryonic lung cells, read-out: inhibition grade
Protocol: as §4, §5, §6

[15] = test system: rhinovirus type 19; assay: Inhibition of cytopathic effect in Wl-38 cells, type 19; type: cell-based; settings: Enterovirus, WI-38, 25 μg/ml, Wl-38 human embryonic lung cells, read-out: inhibition grade
Protocol: as §4, §5, §6

[16] = test system: rhinovirus type 21; assay: Inhibition of cytopathic effect in Wl-38 cells, type 21; type: cell-based; settings: Enterovirus, WI-38, 25 μg/ml, Wl-38 human embryonic lung cells, read-out: inhibition grade
Protocol: as §4, §5, §6

[17] = test system: rhinovirus type 29; assay: Inhibition of cytopathic effect in Wl-38 cells, type 29; type: cell-based; settings: Enterovirus, WI-38, 25 μg/ml, Wl-38 human embryonic lung cells, read-out: inhibition grade
Protocol: as §4, §5, §6

[18] = test system: rhinovirus type 39; assay: Inhibition of cytopathic effect in Wl-38 cells, type 39; type: cell-based; settings: Enterovirus, WI-38, 25 μg/ml, Wl-38 human embryonic lung cells, read-out: inhibition grade
Protocol: as §4, §5, §6

[19] = test system: rhinovirus type 56; assay: Inhibition of cytopathic effect in Wl-38 cells, type 56; type: cell-based; settings: Enterovirus, WI-38, 25 μg/ml, Wl-38 human embryonic lung cells, read-out: inhibition grade
Protocol: as §4, §5, §6

[20] = test system: rhinovirus type 58; assay: Inhibition of cytopathic effect in Wl-38 cells, type 58; type: cell-based; settings: Enterovirus, WI-38, 25 μg/ml, Wl-38 human embryonic lung cells, read-out: inhibition grade
Protocol: as §4, §5, §6

[21] = test system: rhinovirus type 59; assay: Inhibition of cytopathic effect in Wl-38 cells, type 59; type: cell-based; settings: Enterovirus, WI-38, 25 μg/ml, Wl-38 human embryonic lung cells, read-out: inhibition grade
Protocol: as §4, §5, §6

[22] = test system: rhinovirus type 60; assay: Inhibition of cytopathic effect in Wl-38 cells, type 60; type: cell-based; settings: Enterovirus, WI-38, 25 μg/ml, Wl-38 human embryonic lung cells, read-out: inhibition grade
Protocol: as §4, §5, §6

[23] = test system: rhinovirus type 64; assay: Inhibition of cytopathic effect in Wl-38 cells, type 64; type: cell-based; settings: Enterovirus, WI-38, 25 μg/ml, Wl-38 human embryonic lung cells, read-out: inhibition grade
Protocol: as §4, §5, §6

[24] = test system: rhinovirus type 74; assay: Inhibition of cytopathic effect in Wl-38 cells, type 74; type: cell-based; settings: Enterovirus, WI-38, 25 μg/ml, Wl-38 human embryonic lung cells, read-out: inhibition grade
Protocol: as §4, §5, §6

[25] = test system: rhinovirus type 81; assay: Inhibition of cytopathic effect in Wl-38 cells, type 81; type: cell-based; settings: Enterovirus, WI-38, 25 μg/ml, Wl-38 human embryonic lung cells, read-out: inhibition grade
Protocol: as §4, §5, §6

[26] = test system: rhinovirus type 68; assay: Inhibition of cytopathic effect in Wl-38 cells, type 68; type: cell-based; settings: Enterovirus, WI-38, 25 μg/ml, Wl-38 human embryonic lung cells, read-out: inhibition grade
Protocol: as §4, §5, §6

[27] = test system: rhinovirus type 8; assay: Inhibition of cytopathic effect in Wl-38 cells, type 8; type: cell-based; settings: Enterovirus, WI-38, 25 μg/ml, Wl-38 human embryonic lung cells, read-out: inhibition grade
Protocol: as §4, §5, §6

[28] = test system: rhinovirus type 75; assay: Inhibition of cytopathic effect in Wl-38 cells, type 75; type: cell-based; settings: Enterovirus, WI-38, 25 μg/ml, Wl-38 human embryonic lung cells, read-out: inhibition grade
Protocol: as §4, §5, §6

[29] = Acute toxicity in rats; settings: rat, in vivo
[30] = Acute oral toxicity in beagle dogs; settings: dog, in vivo
[31] = test system: Picornaviruses; assay: Antiviral effectiveness against picornaviruses, overall; type: cell-based
Protocol: as §1
Solutions of 4-(4-(methylsulfonyl)phenoxy)-1,2-dichlorobenzene were prepared by dissolving 5 milligrams of the compound in 0.1 ml dimethyl sulfoxide and incubating at 56° C. for at least 15 minutes. This solution was added to 0.9 ml of warmed (56° C.) maintenance medium (49% Eagles, 49% medium 199, 2% fetal calf serum and antibiotics), and the resulting 1.0 ml was then added to 9 ml of warmed (56° C.) maintenance medium. From this solution the final concentrations of 100, 50, 25, or 12.5 μg/ml were made up with maintenance medium. […]

SMILES: CS(=O)(=O)c1ccc(Oc2ccc(Cl)c(Cl)c2)cc1 [Example 1, 4-(4-(Methylsulfonyl)phenoxy)-1,2-dichlorobenzene]
- MCC [1]: 50 to 100 µg/mL
- EC50 [2]: 0.25 µg/mL (≈ 0.788 µM)
- EC50 [3]: 0.25 µg/mL (≈ 0.788 µM)
- EC50 [4]: 2.5 µg/mL (≈ 7.88 µM)
- EC50 [5]: ~50 µg/mL (≈ 158 µM)
- EC50 [6]: 0.25 µg/mL (≈ 0.788 µM)
- antiviral activity in Single Oral Dose test [7]: exhibited antiviral activity
- antiviral activity in Continuous Oral Feeding test [8]: exhibited antiviral activity
- inhibition at 25 µg/mL [9]: ≥ 75%
- inhibition at 25 µg/mL [10]: ≥ 75%
- inhibition at 25 µg/mL [11]: ≥ 75%
- inhibition at 25 µg/mL [12]: ≥ 75%
- inhibition at 25 µg/mL [13]: ≥ 75%
- inhibition at 25 µg/mL [14]: ≥ 75%
- inhibition at 25 µg/mL [15]: ≥ 75%
- inhibition at 25 µg/mL [16]: ≥ 75%
- inhibition at 25 µg/mL [17]: ≥ 75%
- inhibition at 25 µg/mL [18]: ≥ 75%
- inhibition at 25 µg/mL [19]: ≥ 75%
- inhibition at 25 µg/mL [20]: ≥ 75%
- inhibition at 25 µg/mL [21]: ≥ 75%
- inhibition at 25 µg/mL [22]: ≥ 75%
- inhibition at 25 µg/mL [23]: ≥ 75%
- inhibition at 25 µg/mL [24]: ≥ 75%
- inhibition at 25 µg/mL [25]: ≥ 75%
- inhibition at 25 µg/mL [26]: 50 to 74%
- inhibition at 25 µg/mL [27]: < 50%
- inhibition at 25 µg/mL [28]: < 50%
- LD50 ([29]; ip, intraperitoneal, read-out: acute toxicity, intraperitoneal administration): > 1000 mg/kg
- LD50 ([29]; oral, read-out: acute oral toxicity): > 2000 mg/kg
- LD50 [30]: > 2000 mg/kg
- effectiveness against Picornaviruses [31]: particularly effective against Picornaviruses
